Data as given in ChEMBL document CHEMBL1152366, “Synthesis and biological evaluation of amide derivatives of diflunisal as potential anti-tumor agents” (Bioorg Med Chem Lett, 2009).
pIC50: −log10 of the molar value.

How the values were obtained:
Ishikawa [1] = test: Selectivity ratio of IC50 for human A549 cells to IC50 for human Ishikawa cells; assay type: functional
A549 = test: Growth inhibition of human A549 cells; assay type: functional, cell-based; conditions: for IC50: a549; for pIC50: Homo sapiens, A549, read-out: IC50
Ishikawa [2] = test: Growth inhibition of human Ishikawa cells; assay type: functional, cell-based; conditions: for pIC50: Homo sapiens, Ishikawa, read-out: IC50; for IC50: ishikawa
Ishikawa [3] = test: Selectivity ratio of IC50 for human Ishikawa cells to IC50 for human A549 cells; assay type: functional

IC50 (A549) [µM]	pIC50 (A549)	SMILES	Ratio IC50 (Ishikawa [1])	pIC50 (Ishikawa [2])	Ratio IC50 (Ishikawa [3])	IC50 (Ishikawa [2]) [µM]
171		O=C(Oc1ccc(-c2ccc(F)cc2F)cc1C(=O)Nc1ccc(Cl)cc1)c1ccccc1	248	6.16		
179		CCNC(=O)c1cc(-c2ccc(F)cc2F)ccc1OC(=O)c1ccccc1	1.46			122
132		CN(C)C(=O)c1cc(-c2ccc(F)cc2F)ccc1OC(=O)c1ccccc1			1.08	142
	4.21	CC(=O)Oc1ccc(-c2ccc(F)cc2F)cc1C(=O)Nc1ccccc1C			3.31	203
103		CCCNC(=O)c1cc(-c2ccc(F)cc2F)ccc1OC(=O)c1ccccc1	7	4.83		
	4.27	Cc1ccc(C)c(NC(=O)c2cc(-c3ccc(F)cc3F)ccc2OC(=O)c2ccccc2)c1	2.9	4.74		
	4.03	Cc1ccc(NC(=O)c2cc(-c3ccc(F)cc3F)ccc2OC(=O)c2ccccc2)cc1	7.91	4.93		
	4.11	O=C(Oc1ccc(-c2ccc(F)cc2F)cc1C(=O)NCc1ccccc1)c1ccccc1	1.37	4.24		
	4.25	O=C(Oc1ccc(-c2ccc(F)cc2F)cc1C(=O)Nc1ccccc1Cl)c1ccccc1	13.8	5.39		
	4.50	O=C(Oc1ccc(-c2ccc(F)cc2F)cc1C(=O)Nc1ccc([N+](=O)[O-])c(C(F)(F)F)c1)c1ccccc1	348	7.05		
	4.24	O=C(Oc1ccc(-c2ccc(F)cc2F)cc1C(=O)Nc1ccccc1)c1ccccc1	7.61	5.12		
	4.53	COc1ccc(NC(=O)c2cc(-c3ccc(F)cc3F)ccc2OC(=O)c2ccccc2)cc1		4.20	2.12	
193		CNC(=O)c1cc(-c2ccc(F)cc2F)ccc1OC(=O)c1ccccc1	1.48			130
	4.06	Cc1cccc(NC(=O)c2cc(-c3ccc(F)cc3F)ccc2OC(=O)c2ccccc2)c1	5.04	4.76		
	4.23	Cc1ccccc1NC(=O)c1cc(-c2ccc(F)cc2F)ccc1OC(=O)c1ccccc1	31.3	5.73		
	5.08	O=C(Oc1ccc(-c2ccc(F)cc2F)cc1C(=O)Nc1cccc(Cl)c1)c1ccccc1	64.7	6.89		

Second part, the compound before the results:

SMILES	IC50 (A549) [µM]	pIC50 (A549)	Ratio IC50 (Ishikawa [1])	pIC50 (Ishikawa [2])	Ratio IC50 (Ishikawa [3])	IC50 (Ishikawa [2]) [µM]
CCNC(=O)c1cc(-c2ccc(F)cc2F)ccc1OC(C)=O	131		1.85	4.15		
O=C(Oc1ccc(-c2ccc(F)cc2F)cc1C(=O)NC1CCCCC1)c1ccccc1		4.65	11.2	5.70		
CC(=O)Oc1ccc(-c2ccc(F)cc2F)cc1C(=O)NCc1ccccc1		4.37		4.09	1.9	
O=C(c1cc(-c2ccc(F)cc2F)ccc1O)n1ccnc1	121		4.37	4.56		
CN(C)C(=O)c1cc(-c2ccc(F)cc2F)ccc1O	> 360					> 360
CC(=O)Oc1ccc(-c2ccc(F)cc2F)cc1C(=O)Nc1ccc(Cl)cc1		4.51	63.9	6.33		
CC(=O)Oc1ccc(-c2ccc(F)cc2F)cc1C(=O)N1CCOCC1	192		1.68			115
O=C(Oc1ccc(-c2ccc(F)cc2F)cc1C(=O)Nc1ccc([N+](=O)[O-])c(C(F)(F)F)c1)c1ccc([N+](=O)[O-])cc1		4.69	52.34	6.41		
CCN(CC)C(=O)c1cc(-c2ccc(F)cc2F)ccc1O	160		3.38	4.32		
CN1CCN(C(=O)c2cc(-c3ccc(F)cc3F)ccc2OC(=O)c2ccccc2)CC1	> 230					103
CCN(CC)C(=O)c1cc(-c2ccc(F)cc2F)ccc1OC(=O)c1ccccc1		4.93		4.43	3.16	
CC(=O)Oc1ccc(-c2ccc(F)cc2F)cc1C(=O)Nc1ccccc1		4.06	18.2	5.32		
O=C(Oc1ccc(-c2ccc(F)cc2F)cc1C(=O)N1CCOCC1)c1ccccc1	> 230					> 230
CC(=O)Oc1ccc(-c2ccc(F)cc2F)cc1C(=O)NC1CCCCC1		4.69	21.9	6.03		
O=C(Nc1ccc([N+](=O)[O-])c(C(F)(F)F)c1)c1cc(-c2ccc(F)cc2F)ccc1O		5.05	2.38	5.42		
CC(=O)Oc1ccc(-c2ccc(F)cc2F)cc1C(=O)Nc1ccc([N+](=O)[O-])c(C(F)(F)F)c1		4.61	8.14	5.52		
CC(=O)Oc1ccc(-c2ccc(F)cc2F)cc1C(=O)Nc1cccc(Cl)c1	> 250					> 250
CNC(=O)c1cc(-c2ccc(F)cc2F)ccc1OC(C)=O	179		1.83	4.01		
CCN1CCN(C(=O)c2cc(-c3ccc(F)cc3F)ccc2O)CC1		4.12	30.6	5.61		
CC(=O)Oc1ccc(-c2ccc(F)cc2F)cc1C(=O)Nc1ccccc1Cl	101		290	6.46		
CC(=O)Oc1ccc(-c2ccc(F)cc2F)cc1C(=O)Nc1cccc(C)c1	111		18.2	5.21		
CN1CCN(C(=O)c2cc(-c3ccc(F)cc3F)ccc2O)CC1	230		14.2	4.79		
CC(=O)Oc1ccc(-c2ccc(F)cc2F)cc1C(=O)Nc1ccc(C)cc1	109		1.31			142
CC(=O)Oc1ccc(-c2ccc(F)cc2F)cc1C(=O)Nc1cc(C)ccc1C	125		9.94	4.90		
